According to patent publication US20260014175A1, “PHARMACEUTICAL COMPOSITION FOR ORAL ADMINISTRATION OF CANNABINOIDS” (EM[…]., priority 2022, published 2026):

Assay: Compatibility of CBD / CBD-containing SNEDDS with excipients (CBD release in SGF, SIF, FaSSIF)
Format: physicochemical
Procedure: A number of different compositions were prepared and tested in order to determine the compatibility of CBD and/or CBD-containing self-nanoemulsifying drug delivery systems (SNEDDS) with various excipients.

Compound	compatibility with CBD/CBD-containing SNEDDS
O=C([O-])CN(CCN(CC(=O)[O-])CC(=O)O)CC(=O)O.[Na+].[Na+] [EDTA sodium]	no signs of incompatibility
NCC(=O)O [Glycine]	no signs of incompatibility
CCCCCCCCCCCCOS(=O)(=O)[O-].[Na+] [Sodium lauryl sulfate (SLS), Sodium lauryl sulfate]	no signs of incompatibility
